For the assay, the system named is gut lymphatic clotting. Nature of the assay: lymphatic clots in mice with induced deletion of lymphatic endothelial thrombomodulin (THBD). Format: in vivo. The note with it: oral warfarin in water, 3 weeks after induction. From the text:
FIGS. 7A-7C show oral delivery of warfarin prevents lymphatic clots in mouse model of lymphothrombosis. […] P-values are indicated by asterisks as follows: ***p<0.001.
However, dosing with existing antithrombotic drugs will confer systemic anticoagulation, with established significant risks of bleeding throughout the body, including in the gut and brain. […] Therefore, there is a clear need for a functional antithrombotic drug that can be delivered and act preferentially to the gut lymphatics at a therapeutic dose. In addition, the volume of lymphatic fluid in the gut is much less than the volume of blood in the body, which means that a therapeutic dose of drug directly to the gut lymphatics will be massively diluted once it reaches the blood stream to well below therapeutic levels, thereby preventing systemic anticoagulation and inappropriate bleeding.

These results are taken from patent US20250170110A1, “LYMPHATIC TARGETED ANTI-COAGULANT FOR THE PREVENTION OF LYMPHATIC THROMBOSIS” (THE TRUSTEES OF THE UNIVERSITY OF PENNSYLVANIA, priority 2022, published 2025).

Take `CC(=O)CC(c1ccccc1)c1c(O)c2ccccc2oc1=O` (stereo not shown) [warfarin]: the “lymphatic clotting (fibrin positive lymphatic vessels)” value was “prevented lymphatic clotting”.
